Experimental data published in patent US7880007B2, “Bicyclic substituted phenyl piperidine modulators of muscarinic receptors” (Vertex Pharmaceuticals Incorporated, priority 2004, dated 2011).

What was measured:
Format in all cases: cell-based
[1] = molecular target: T1, M1 muscarinic receptor (Homo sapiens, UniProt P11229); assay: Functional mobilization of intracellular calcium (FLIPR), M1-CHO cells; conditions: for Emax: 100% efficacy is the maximum response obtained with the Carbachol control; for M1 Activity: M1-CHO cells, calcium mobilization (FLIPR)
T1 construct: expressed in transfected cells; host or cells: CHO (M1-CHO)
T1 sequence (P11229 1-460): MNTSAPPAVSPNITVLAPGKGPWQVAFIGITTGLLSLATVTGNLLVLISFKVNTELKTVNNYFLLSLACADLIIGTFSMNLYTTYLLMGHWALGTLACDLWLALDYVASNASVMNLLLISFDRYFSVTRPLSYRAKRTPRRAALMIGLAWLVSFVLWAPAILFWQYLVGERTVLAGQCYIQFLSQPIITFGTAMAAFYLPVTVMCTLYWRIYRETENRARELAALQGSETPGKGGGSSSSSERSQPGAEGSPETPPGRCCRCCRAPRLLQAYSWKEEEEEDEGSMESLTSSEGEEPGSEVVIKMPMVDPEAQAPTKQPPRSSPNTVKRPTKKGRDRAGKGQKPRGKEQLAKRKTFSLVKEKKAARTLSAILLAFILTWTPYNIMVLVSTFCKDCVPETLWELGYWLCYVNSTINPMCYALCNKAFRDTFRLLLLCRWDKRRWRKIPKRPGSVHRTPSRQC
Method in brief: (§1)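 CHO cells expressing human M1–M4 receptors loaded with Fluo-3 AM or Calcium 3 dye (1 mM probenecid, pH 7.4); 0.5% DMSO final. Agonist mode: compound added directly; antagonist mode: 15 min pre-incubation or co-application, then carbachol at EC80. Fluorescence read 60 s on FLIPR; efficacy relative to carbachol maximum.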

[2] = molecular target: T2, M2 muscarinic receptor (Homo sapiens, UniProt P08172); assay: Functional mobilization of intracellular calcium (FLIPR), M2-CHO cells; conditions: for Emax: 100% efficacy is the maximum response obtained with the Carbachol control; for M2 Activity: M2-CHO cells, calcium mobilization (FLIPR)
T2 construct: expressed in transfected cells; host or cells: CHO (M2-CHO)
T2 sequence (P08172 1-466): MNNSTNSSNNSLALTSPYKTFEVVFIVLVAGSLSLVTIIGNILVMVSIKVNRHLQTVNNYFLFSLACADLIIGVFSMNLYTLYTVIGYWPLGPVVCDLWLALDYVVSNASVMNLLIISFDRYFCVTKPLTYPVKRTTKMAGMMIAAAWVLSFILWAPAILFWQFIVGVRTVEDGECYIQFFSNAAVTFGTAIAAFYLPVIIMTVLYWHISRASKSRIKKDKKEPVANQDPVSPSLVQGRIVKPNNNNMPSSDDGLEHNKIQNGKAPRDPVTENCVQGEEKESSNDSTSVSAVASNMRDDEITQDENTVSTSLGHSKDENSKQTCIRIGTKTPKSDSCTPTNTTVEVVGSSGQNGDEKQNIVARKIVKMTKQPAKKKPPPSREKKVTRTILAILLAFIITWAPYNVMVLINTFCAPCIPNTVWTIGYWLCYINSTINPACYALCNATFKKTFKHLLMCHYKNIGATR
Method in brief: as §1

[3] = molecular target: T3, M3 muscarinic receptor (Homo sapiens, UniProt P20309); assay: Functional mobilization of intracellular calcium (FLIPR), M3-CHO cells; conditions: for Emax: 100% efficacy is the maximum response obtained with the Carbachol control; for M3 Activity: M3-CHO cells, calcium mobilization (FLIPR)
T3 construct: expressed in transfected cells; host or cells: CHO (M3-CHO)
Method in brief: as §1

[4] = molecular target: T4, M4 muscarinic receptor (Homo sapiens, UniProt P08173); assay: Functional mobilization of intracellular calcium (FLIPR), M4-CHO cells; conditions: for Emax: 100% efficacy is the maximum response obtained with the Carbachol control; for M4 Activity: M4-CHO cells, calcium mobilization (FLIPR)
T4 construct: expressed in transfected cells; host or cells: CHO (M4-CHO)
T4 sequence (P08173 1-479): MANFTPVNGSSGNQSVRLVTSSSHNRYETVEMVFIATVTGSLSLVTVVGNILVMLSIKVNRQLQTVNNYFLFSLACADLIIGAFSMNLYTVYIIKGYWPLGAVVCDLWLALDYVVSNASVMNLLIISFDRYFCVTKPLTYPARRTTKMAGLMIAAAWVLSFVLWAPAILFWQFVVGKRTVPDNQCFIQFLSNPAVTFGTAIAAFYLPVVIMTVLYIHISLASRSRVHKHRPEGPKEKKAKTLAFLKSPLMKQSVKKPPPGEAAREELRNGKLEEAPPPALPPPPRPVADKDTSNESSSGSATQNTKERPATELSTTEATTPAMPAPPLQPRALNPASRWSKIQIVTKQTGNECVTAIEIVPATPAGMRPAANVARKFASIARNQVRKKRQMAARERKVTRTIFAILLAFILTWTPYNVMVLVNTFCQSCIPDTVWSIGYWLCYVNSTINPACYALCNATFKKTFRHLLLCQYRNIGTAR
Method in brief: as §1

T3 sequence (P20309 whole entry): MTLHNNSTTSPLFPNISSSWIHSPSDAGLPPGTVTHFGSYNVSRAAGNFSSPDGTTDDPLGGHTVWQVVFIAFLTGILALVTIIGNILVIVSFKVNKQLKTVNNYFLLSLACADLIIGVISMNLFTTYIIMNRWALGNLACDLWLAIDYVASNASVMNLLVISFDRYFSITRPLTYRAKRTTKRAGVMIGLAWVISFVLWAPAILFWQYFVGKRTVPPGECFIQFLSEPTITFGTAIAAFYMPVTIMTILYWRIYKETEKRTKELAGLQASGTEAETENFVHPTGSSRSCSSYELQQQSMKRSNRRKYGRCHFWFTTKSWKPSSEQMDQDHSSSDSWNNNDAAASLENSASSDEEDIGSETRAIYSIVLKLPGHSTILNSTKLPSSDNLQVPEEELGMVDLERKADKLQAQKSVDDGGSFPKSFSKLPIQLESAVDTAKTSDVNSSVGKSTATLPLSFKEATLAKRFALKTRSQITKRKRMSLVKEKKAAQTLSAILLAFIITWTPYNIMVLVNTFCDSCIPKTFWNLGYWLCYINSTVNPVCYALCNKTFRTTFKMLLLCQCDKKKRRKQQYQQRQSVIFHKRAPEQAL

Row | Emax [1] | Emax [2] | Emax [3] | Emax [4] | SMILES | M1 Activity [1] | M2 Activity [2] | M3 Activity [3] | M4 Activity [4]
1 | < 25% | < 25% | < 25% | 25 to 100% | COc1ccc(Cl)cc1C1(F)CCN(CC2CCOCC2)CC1 [Compound 418] | ++ (activity was measured to be from 1.0 μM to 5.0 μM) | + (activity was measured to be greater than 5.0 μM) | + (activity was measured to be greater than 5.0 μM) | ++ (activity was measured to be from 1.0 μM to 5.0 μM)
2 | 25 to 100% | < 25% | < 25% | 25 to 100% | COc1ccccc1-c1ccccc1C1CCN([C@H]2C[C@H]3CC[C@H]2C3)CC1 [Compound 420] | + (activity was measured to be greater than 5.0 μM) | + (activity was measured to be greater than 5.0 μM) | + (activity was measured to be greater than 5.0 μM) | ++ (activity was measured to be from 1.0 μM to 5.0 μM)
3 | 25 to 100% | 25 to 100% | < 25% | 25 to 100% | COc1ccccc1C(=O)COc1ccccc1C1CCN([C@H]2C[C@H]3CC[C@H]2C3)CC1 [Compound 422] | ++ (activity was measured to be from 1.0 μM to 5.0 μM) | ++ (activity was measured to be from 1.0 μM to 5.0 μM) | + (activity was measured to be greater than 5.0 μM) | +++ (activity was measured to be less than 1.0 μM)
4 | < 25% | < 25% | < 25% | 25 to 100% | COc1ccc(-c2ccc(C)cc2)cc1C1CCN([C@H]2C[C@H]3CC[C@H]2C3)CC1 [Compound 423] | + (activity was measured to be greater than 5.0 μM) | + (activity was measured to be greater than 5.0 μM) | + (activity was measured to be greater than 5.0 μM) | + (activity was measured to be greater than 5.0 μM)
5 | 25 to 100% | 25 to 100% | < 25% | 25 to 100% | Cc1ccc(F)cc1C1CCN(CC2C[C@H]3CC[C@H]2C3)CC1 (stereo partly shown) [Compound 424] | ++ (activity was measured to be from 1.0 μM to 5.0 μM) | ++ (activity was measured to be from 1.0 μM to 5.0 μM) | + (activity was measured to be greater than 5.0 μM) | +++ (activity was measured to be less than 1.0 μM)
